Test results from US5112809A, “CRF analogs” (The Salk Institute for Biological Studies, priority 1990, dated 1992).

Tested on: cultured rat pituitary cells
Experiment: secretion of ACTH and β-endorphin by cultured rat pituitary cells in vitro
Assay type: cell-based
Details: read-out: concentration at which half-maximal responses are observed (stimulation of secretion of ACTH and β-endorphin)
Method: The synthetic peptides from Example I and synthetic oCRF are examined for their effects on the secretion of ACTH and β-endorphin in vitro and also in vivo. The potency of synthetic oCRF to stimulate the secretion of ACTH and β-endorphin by cultured rat pituitary cells is measured using the procedure as generally set forth in Endocrinology, 91, 562 (1972). Half-maximal responses are observed at concentrations of the two peptides which are less than the synthetic oCRF concentration of about 250 picomolar which is needed to achieve such a response. In vivo testing using the general procedure set forth in C.

- EC50: ~0.25 nM
Substance: oCRF: ovine corticotropin releasing factor, 41-residue peptide, formula disclosed in U.S. Pat. No. 4,415,558
